Test results published in the Kinase Knowledgebase extract (Sharma et al. 2016).

Target: PIK3CG (human) (UniProt P48736)
Assay: Assessment of PIK3CG Kinase Activity

Sequence of PIK3CG (human) (P48736 whole entry, looked up): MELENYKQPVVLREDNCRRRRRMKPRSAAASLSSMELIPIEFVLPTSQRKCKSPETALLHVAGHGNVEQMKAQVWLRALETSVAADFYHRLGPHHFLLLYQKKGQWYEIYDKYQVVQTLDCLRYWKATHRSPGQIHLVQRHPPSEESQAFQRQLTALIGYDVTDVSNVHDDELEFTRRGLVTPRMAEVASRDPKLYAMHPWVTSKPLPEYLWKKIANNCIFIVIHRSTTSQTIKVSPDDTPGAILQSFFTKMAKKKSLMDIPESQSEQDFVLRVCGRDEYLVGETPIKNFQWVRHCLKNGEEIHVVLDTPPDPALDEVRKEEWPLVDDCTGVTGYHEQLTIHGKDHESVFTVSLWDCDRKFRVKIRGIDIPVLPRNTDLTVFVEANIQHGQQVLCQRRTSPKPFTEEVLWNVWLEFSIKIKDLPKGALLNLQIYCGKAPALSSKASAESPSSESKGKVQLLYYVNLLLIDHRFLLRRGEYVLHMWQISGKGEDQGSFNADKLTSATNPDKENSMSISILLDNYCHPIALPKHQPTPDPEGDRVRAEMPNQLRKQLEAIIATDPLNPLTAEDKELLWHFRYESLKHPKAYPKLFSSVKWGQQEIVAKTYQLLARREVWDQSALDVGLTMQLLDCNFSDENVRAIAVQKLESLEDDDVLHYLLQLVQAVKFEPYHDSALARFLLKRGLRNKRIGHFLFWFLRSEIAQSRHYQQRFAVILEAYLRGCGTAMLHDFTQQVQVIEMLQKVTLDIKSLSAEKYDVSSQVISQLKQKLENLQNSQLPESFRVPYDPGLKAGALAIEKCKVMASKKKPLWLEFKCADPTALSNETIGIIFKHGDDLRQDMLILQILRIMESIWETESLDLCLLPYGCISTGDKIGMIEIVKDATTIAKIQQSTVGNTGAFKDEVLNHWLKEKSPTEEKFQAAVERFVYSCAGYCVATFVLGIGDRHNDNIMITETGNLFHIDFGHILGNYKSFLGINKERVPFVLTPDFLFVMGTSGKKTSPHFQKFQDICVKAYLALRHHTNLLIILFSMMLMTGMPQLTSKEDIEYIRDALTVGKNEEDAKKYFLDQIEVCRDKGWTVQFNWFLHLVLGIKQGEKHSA

Row | IC50 [nM] | Compound
1 | < 800 | COCCN(C)C(=O)N[C@H]1CCN(C(=O)Nc2nc3c(s2)-c2nc(-c4ccccc4Cl)ncc2CC3)C1
2 | < 800 | O=C(NCC1CC1)Nc1nc2c(s1)-c1nc(-c3ccccc3Cl)ncc1CC2
3 | < 800 | CC(C)(C)c1cc(CNC(=O)Nc2nc3c(s2)-c2nc(-c4ccccc4Cl)ncc2CC3)[nH]n1
4 | < 800 | CN1CCC(CNC(=O)Nc2nc3c(s2)-c2nc(-c4ccccc4Cl)ncc2CC3)CC1
5 | < 800 | O=C(NCc1cccc(NC(=O)C2CC2)c1)Nc1nc2c(s1)-c1nc(-c3ccccc3Cl)ncc1CC2
6 | < 800 | NC(=O)Nc1nc2c(s1)-c1nc(-c3ccccc3C(F)(F)F)ncc1CC2
7 | < 800 | CC(C)(C)OC(=O)NCc1ccccc1NC(=O)Nc1nc2c(s1)-c1nc(-c3ccccc3Cl)ncc1CC2
8 | < 800 | O=C(NCC1CCOCC1)Nc1nc2c(s1)-c1nc(-c3ccccc3Cl)ncc1CC2
9 | < 800 | O=C(Nc1nc2c(s1)-c1nc(-c3ccccc3Cl)ncc1CC2)NC1CCC1
10 | < 800 | CN(Cc1cccc(CNC(=O)Nc2nc3c(s2)-c2nc(-c4ccccc4Cl)ncc2CC3)c1)C(=O)OC(C)(C)C
11 | < 800 | Cc1ccc(CN2CC(CNC(=O)Nc3nc4c(s3)-c3nc(-c5ccccc5Cl)ncc3CC4)CC2=O)cc1 (centres undefined)
12 | < 800 | CN(C)C(=O)CCNC(=O)Nc1nc2c(s1)-c1nc(-c3ccccc3Cl)ncc1CC2
13 | < 800 | CC(C)c1cnc(CCNC(=O)Nc2nc3c(s2)-c2nc(-c4ccccc4Cl)ncc2CC3)o1
14 | < 800 | CC(C)(C)OC(=O)NC1CCN(C(=O)Nc2nc3c(s2)-c2nc(-c4ccccc4Cl)ncc2CC3)C1 (centres undefined)
15 | < 800 | CN1CCC(O)C2(CCCN(C(=O)Nc3nc4c(s3)-c3nc(-c5ccccc5Cl)ncc3CC4)C2)C1 (centres undefined)
16 | < 800 | CC(C)(C)CC(=O)N[C@@H]1CCN(C(=O)Nc2nc3c(s2)-c2nc(-c4ccccc4Cl)ncc2CC3)C1
17 | < 800 | CC(C)(C)OC(=O)N1CCCCC1CNC(=O)Nc1nc2c(s1)-c1nc(-c3ccccc3Cl)ncc1CC2 (centres undefined)
18 | < 800 | CCNC(=O)Nc1nc2c(s1)-c1nc(-c3ccccc3Cl)ncc1CC2
19 | < 800 | CCN1CCC[C@H]1CNC(=O)Nc1nc2c(s1)-c1nc(-c3ccccc3Cl)ncc1CC2
20 | < 800 | CN1CCN(Cc2cccc(NC(=O)Nc3nc4c(s3)-c3nc(-c5ccccc5Cl)ncc3CC4)c2)CC1
21 | < 800 | O=C(Nc1nc2c(s1)-c1nc(-c3ccccc3Cl)ncc1CC2)NC1CCCCC1
22 | < 800 | CC(C)OC(=O)N[C@@H]1CCN(C(=O)Nc2nc3c(s2)-c2nc(-c4ccccc4Cl)ncc2CC3)C1
23 | < 800 | CC(C)(C)OC(=O)N1CCC[C@@H]1CNC(=O)Nc1nc2c(s1)-c1nc(-c3ccccc3Cl)ncc1CC2

Row | IC50 [nM] | Compound
24 | < 800 | CC(C)(C)OC(=O)N[C@@H]1CCN(C(=O)Nc2nc3c(s2)-c2nc(-c4ccccc4Cl)ncc2CC3)C1
25 | < 800 | O=C(NCc1ccccc1-n1cccn1)Nc1nc2c(s1)-c1nc(-c3ccccc3Cl)ncc1CC2
26 | < 800 | Cn1ccnc1CNC(=O)Nc1nc2c(s1)-c1nc(-c3ccccc3Cl)ncc1CC2
27 | < 800 | O=C(Nc1nc2c(s1)-c1nc(-c3ccccc3Cl)ncc1CC2)N1CCC(c2c[nH]c3ccccc23)CC1
28 | < 800 | O=C(N[C@H]1CCN(C(=O)Nc2nc3c(s2)-c2nc(-c4ccccc4Cl)ncc2CC3)C1)C1CC1
29 | < 800 | CC1(C)C(c2ccccc2)CCN1C(=O)Nc1nc2c(s1)-c1nc(-c3ccccc3Cl)ncc1CC2 (centres undefined)
30 | < 800 | CC(C)NC(=O)c1cccc(CNC(=O)Nc2nc3c(s2)-c2nc(-c4ccccc4Cl)ncc2CC3)c1
31 | < 800 | CC(C)(C)CC(=O)N[C@H]1CCN(C(=O)Nc2nc3c(s2)-c2nc(-c4ccccc4Cl)ncc2CC3)C1
32 | < 800 | CN(C)C(=O)Nc1nc2c(s1)-c1nc(-c3ccccc3Cl)ncc1CC2
33 | < 800 | COCCN(C)C(=O)Nc1nc2c(s1)-c1nc(-c3ccccc3Cl)ncc1CC2
34 | < 800 | CCC(=O)N[C@H]1CCN(C(=O)Nc2nc3c(s2)-c2nc(-c4ccccc4Cl)ncc2CC3)C1
35 | < 800 | CC(C)CN(C)C(=O)c1cccc(CNC(=O)Nc2nc3c(s2)-c2nc(-c4ccccc4Cl)ncc2CC3)c1
36 | < 800 | CC(C)c1nnc(CCNC(=O)Nc2nc3c(s2)-c2nc(-c4ccccc4Br)ncc2CC3)o1
37 | < 800 | O=C(NCc1cccc(C(=O)N2CCOCC2)c1)Nc1nc2c(s1)-c1nc(-c3ccccc3Cl)ncc1CC2
38 | < 800 | CC(C)CNC(=O)Nc1nc2c(s1)-c1nc(-c3ccccc3Cl)ncc1CC2
39 | < 800 | CC(C)c1nnc(CCNC(=O)Nc2nc3c(s2)-c2nc(-c4ccccc4F)ncc2CC3)o1
40 | < 800 | CCc1nnc(CCNC(=O)Nc2nc3c(s2)-c2nc(-c4ccccc4C(F)(F)F)ncc2CC3)o1
41 | < 800 | CC1CC(c2ccc(O)cc2)CN1C(=O)Nc1nc2c(s1)-c1nc(-c3ccccc3Cl)ncc1CC2 (centres undefined)
42 | < 800 | O=C(NCc1ccccc1)Nc1nc2c(s1)-c1nc(-c3ccccc3Cl)ncc1CC2
43 | < 800 | CC1(C)NC(=O)N(Cc2ccc(CNC(=O)Nc3nc4c(s3)-c3nc(-c5ccccc5Cl)ncc3CC4)cc2)C1=O
44 | < 800 | O=C1Cc2ccccc2CN1CC1CCN(C(=O)Nc2nc3c(s2)-c2nc(-c4ccccc4Cl)ncc2CC3)C1 (centres undefined)
45 | < 800 | CC(=O)N[C@H]1CCN(C(=O)Nc2nc3c(s2)-c2nc(-c4ccccc4Cl)ncc2CC3)C1
46 | < 800 | O=C(O)[C@H]1[C@H](c2ccccc2)CCN1C(=O)Nc1nc2c(s1)-c1nc(-c3ccccc3Cl)ncc1CC2

Row | IC50 [nM] | Compound
47 | < 800 | O=C(NCc1cccc(N2CCOCC2)c1)Nc1nc2c(s1)-c1nc(-c3ccccc3Cl)ncc1CC2
48 | < 800 | CN(C)S(=O)(=O)N[C@@H]1CCN(C(=O)Nc2nc3c(s2)-c2nc(-c4ccccc4Cl)ncc2CC3)C1
49 | < 800 | CC(C)c1cnc(CCNC(=O)Nc2nc3c(s2)-c2nc(-c4ccccc4Br)ncc2CC3)o1
50 | < 800 | O=C(Nc1nc2c(s1)-c1nc(-c3ccccc3Cl)ncc1CC2)N1CC[C@@H](NC(=O)N2CCOCC2)C1
51 | < 800 | CCN(CC)C(=O)N[C@H]1CCN(C(=O)Nc2nc3c(s2)-c2nc(-c4ccccc4Cl)ncc2CC3)C1
52 | < 800 | COCCNC(=O)Nc1nc2c(s1)-c1nc(-c3ccccc3Cl)ncc1CC2
53 | < 800 | O=C(NCCc1cccc(N2CCNC2=O)c1)Nc1nc2c(s1)-c1nc(-c3ccccc3Cl)ncc1CC2
54 | < 800 | CCc1nnc(CCNC(=O)Nc2nc3c(s2)-c2nc(-c4ccccc4Cl)ncc2CC3)o1
55 | < 800 | O=C(NCc1cccc(N2CCNC2=O)c1)Nc1nc2c(s1)-c1nc(-c3ccccc3Br)ncc1CC2
56 | < 800 | CCc1cnc(CCNC(=O)Nc2nc3c(s2)-c2nc(C(C)(C)C)ncc2CC3)o1
57 | < 800 | CC(C)c1cccc(CNC(=O)Nc2nc3c(s2)-c2nc(-c4ccccc4Cl)ncc2CC3)c1
58 | < 800 | CNC(=O)c1cccc(CNC(=O)Nc2nc3c(s2)-c2nc(-c4ccccc4Cl)ncc2CC3)c1
59 | < 800 | CC(=O)N(C)c1cccc(CNC(=O)Nc2nc3c(s2)-c2nc(-c4ccccc4Cl)ncc2CC3)c1
60 | < 800 | COC(=O)CNC(=O)Nc1nc2c(s1)-c1nc(-c3ccccc3Cl)ncc1CC2
61 | < 800 | COc1cccc([C@H](C)NC(=O)Nc2nc3c(s2)-c2nc(-c4ccccc4Cl)ncc2CC3)c1
62 | < 800 | O=C(NCCc1ccccn1)Nc1nc2c(s1)-c1nc(-c3ccccc3Cl)ncc1CC2
63 | < 800 | O=C(NCc1cccc(C(=O)N2CCCC2)c1)Nc1nc2c(s1)-c1nc(-c3ccccc3Cl)ncc1CC2
64 | < 800 | O=C(NCCc1ccccc1)Nc1nc2c(s1)-c1nc(-c3ccccc3Cl)ncc1CC2
65 | < 800 | O=C(Nc1nc2c(s1)-c1nc(-c3ccccc3Cl)ncc1CC2)N1CC[C@@H](NC(=O)N2CCCCC2)C1
66 | < 800 | CC(=O)NC1CCN(C(=O)Nc2nc3c(s2)-c2nc(-c4ccccc4Cl)ncc2CC3)C1 (centres undefined)
67 | < 800 | CC(C)(CNc1ncccn1)NC(=O)Nc1nc2c(s1)-c1nc(-c3ccccc3Cl)ncc1CC2
68 | < 800 | O=C(NCc1cc(C2CC2)n[nH]1)Nc1nc2c(s1)-c1nc(-c3ccccc3Cl)ncc1CC2
69 | < 800 | O=C(NCCc1ccc2c(c1)OCCO2)Nc1nc2c(s1)-c1nc(-c3ccccc3Cl)ncc1CC2

Row | IC50 [nM] | Compound
70 | < 800 | O=C(NCCC(=O)N1CCCCC1)Nc1nc2c(s1)-c1nc(-c3ccccc3Cl)ncc1CC2
71 | < 800 | CNC(=O)Nc1nc2c(s1)-c1nc(-c3cccc(F)c3Cl)ncc1CC2
72 | < 800 | Cc1cccc(CNC(=O)Nc2nc3c(s2)-c2nc(-c4ccccc4Cl)ncc2CC3)c1
73 | < 800 | CCc1csc(CCNC(=O)Nc2nc3c(s2)-c2nc(-c4ccccc4Cl)ncc2CC3)n1
74 | < 800 | O=C(NCc1cccc(NC(=O)N2CCOCC2)c1)Nc1nc2c(s1)-c1nc(-c3ccccc3Cl)ncc1CC2
75 | < 800 | CCc1cnc(CCNC(=O)Nc2nc3c(s2)-c2nc(-c4ccccc4Cl)ncc2CC3)o1
76 | < 800 | CC(C)(C)OC(=O)CC1(O)CCN(C(=O)Nc2nc3c(s2)-c2nc(-c4ccccc4Cl)ncc2CC3)CC1
77 | < 800 | CC(C)NC(=O)Nc1cccc(CNC(=O)Nc2nc3c(s2)-c2nc(-c4ccccc4Cl)ncc2CC3)c1
78 | < 800 | O=C(NCc1cccc(N2CCNC2=O)c1)Nc1nc2c(s1)-c1nc(-c3ccccc3Cl)ncc1CC2
79 | < 800 | CCn1cnc(CCNC(=O)Nc2nc3c(s2)-c2nc(-c4ccccc4Br)ncc2CC3)c1
80 | < 800 | CC(C)NC(=O)N[C@H]1CCN(C(=O)Nc2nc3c(s2)-c2nc(-c4ccccc4Cl)ncc2CC3)C1
81 | < 800 | Cn1cc(CNC(=O)Nc2nc3c(s2)-c2nc(-c4ccccc4Br)ncc2CC3)cn1
82 | < 800 | O=C(NCc1ccco1)Nc1nc2c(s1)-c1nc(-c3ccccc3Cl)ncc1CC2
83 | < 800 | O=C(Nc1ccccc1)Nc1nc2c(s1)-c1nc(-c3ccccc3Cl)ncc1CC2
84 | < 800 | CC(C)(C)OC(=O)N1CCN(c2ccc(NC(=O)Nc3nc4c(s3)-c3nc(-c5ccccc5Cl)ncc3CC4)cc2)CC1
85 | < 800 | CC(C)(C)OC(=O)N1CCC(CNC(=O)Nc2nc3c(s2)-c2nc(-c4ccccc4Cl)ncc2CC3)CC1
86 | < 800 | CCn1cc(CNC(=O)Nc2nc3c(s2)-c2nc(-c4ccccc4Br)ncc2CC3)cn1
87 | < 800 | COCCCNC(=O)Nc1nc2c(s1)-c1nc(-c3ccccc3Cl)ncc1CC2
88 | < 800 | O=C(Nc1nc2c(s1)-c1nc(-c3ccccc3Cl)ncc1CC2)N1CCC(n2cnc3ccccc32)CC1
89 | < 800 | CC(C)(C)OC(=O)N[C@H]1CCN(C(=O)Nc2nc3c(s2)-c2nc(-c4ccccc4Cl)ncc2CC3)C1
